In ChEMBL document CHEMBL1155786, “Synthesis of 3'-deoxy-3'-C-methyl nucleoside derivatives” (Bioorg Med Chem, 2008):
Activity calls are given as the source filed them. The rule behind the calls is not given here.

Tested on: Human immunodeficiency virus
Test: Antiviral activity against HIV at 100 uM
Format: functional, organism-based

With C[C@H]1C[C@H](n2ccc(=O)[nH]c2=O)O[C@@H]1CO the Activity was “inactive”.

Cc1cn([C@H]2C[C@H](C)[C@@H](CO)O2)c(=O)[nH]c1=O was tested, and the Activity was “inactive”.

In the case of C[C@H]1C[C@H](n2cnc(C(N)=O)n2)O[C@@H]1CO, the Activity is reported as “inactive”.

With C[C@H]1C[C@H](n2cnc3c(=O)[nH]c(N)nc32)O[C@@H]1CO the Activity was “inactive”.

C[C@H]1C[C@H](n2cnc(C(N)=O)n2)O[C@@H]1COC(=O)c1ccccc1 was tested, and the Activity was “inactive”.

In the case of C[C@H]1C[C@H](n2cnc3c(N)ncnc32)O[C@@H]1CO, the Activity is reported as “inactive”.

With C[C@H]1[C@@H](O)[C@H](n2cnc(C(N)=O)c2N)O[C@@H]1CO the Activity was “inactive”.

With Nc1ccn([C@H]2C[C@H](O)[C@@H](CO)O2)c(=O)n1 the Activity was “inactive”.

For C[C@H]1[C@@H](O)[C@H](n2cnc(C(N)=O)n2)O[C@@H]1CO, the Activity was “inactive”.

For C[C@H]1[C@@H](O)[C@H](n2cnc(C(N)=O)n2)O[C@@H]1COC(=O)c1ccccc1, the Activity was “inactive”.
